Experimental data reported in patent US5474763A, “Reduction of hair growth” (priority 1994, dated 1995).
Like-named read-outs stand apart in the source and are kept apart here.

Key:
[1] = biological target: T1, ornithine aminotransferase (OAT) (Mesocricetus auratus, UniProt A0A1U7QEB0); test: OAT activity assay in hair follicles (P5C formation, HPLC of DHQ); assay type: biochemical, hamster
T1 construct: Assays (including the initial assays) were conducted utilizing excised hamster flank organ follicles; from tissue; host or cells: hamster flank organ hair follicles, minced, sonicated and centrifuged; supernatant assayed
T1 sequence (A0A1U7QEB0 1-439): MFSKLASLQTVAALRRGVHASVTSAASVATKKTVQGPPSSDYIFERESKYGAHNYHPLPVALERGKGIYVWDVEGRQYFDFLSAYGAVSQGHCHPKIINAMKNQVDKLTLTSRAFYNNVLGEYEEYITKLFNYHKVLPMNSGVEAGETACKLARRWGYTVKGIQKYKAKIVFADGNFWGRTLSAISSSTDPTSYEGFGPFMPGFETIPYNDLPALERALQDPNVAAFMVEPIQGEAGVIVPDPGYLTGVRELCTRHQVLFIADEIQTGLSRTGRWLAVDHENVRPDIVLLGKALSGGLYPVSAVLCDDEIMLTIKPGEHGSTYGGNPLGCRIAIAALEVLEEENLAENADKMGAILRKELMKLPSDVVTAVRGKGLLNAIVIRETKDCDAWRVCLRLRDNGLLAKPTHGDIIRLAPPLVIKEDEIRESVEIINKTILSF
Description: The following assay for OAT activity based on the procedure of O'Donnell et al., Analytical Biochemistry 90, 41-46 (1978) was adapted for OAT measurements in hair follicles, and can be used to evaluate the effectiveness of OAT inhibitors in reducing OAT activity.
The product of OAT activity, pyrroline-5-carboxylic acid (P5C), was measured by reverse-phase HPLC analysis of dihydroquinazolium ion (DHQ). DHQ is a reaction product of PSC and o-aminobenzylaldehyde (OAB). The analysis was performed with a Waters 490 UV detector. The amount of DHQ formed was directly proportional to the concentration of P5C. The sensitivity of the Waters 490 UV detector had been determined to be above 100 picomoles of PSC injected and was reasonably linear.
Initial assays of flank organ follicle OAT activity were conducted employing saturating doses of ornithine (350 mM). The OAT mediated conversion of ornithine to P5C was monitored by measuring in vitro PSC formation, resulting in time and concentration dependent increases in PSC.
Assays (including the initial assays) were conducted utilizing excised hamster flank organ follicles. The excised hamster follicles were diluted in assay buffer (2 follicles/300 μl) and then were minced with scissors and homogenized with a sonicator. The resultant homogenate was centrifuged to obtain a cytosolic supernatant which was assayed for OAT. Samples were incubated for one hour with either Gabaculin, L-Canaline, or 5-FMOrn at 1 mM, 100 μM, 10 μM, and 1 μM concentrations. The concentration of P5C was then assayed.

flank organs hair growth = test: Golden Syrian hamster assay (flank organ hair mass); assay type: in vivo; details: topical, thirteen applications; for Treated (hair mass, mean ± SEM): treated flank organ
Description: Male intact Golden Syrian hamsters are considered acceptable models for human beard hair growth in that they display oval shaped flank organs, one on each side, each about 8 mm. in major diameter, which grow thick black and coarse hair similar to human beard hair. These organs produce hair in response to androgens in the hamster. To evaluate the effectiveness of a particular OAT inhibitor, the flank organs of each of a group of hamsters are depilated by applying a thioglycolate based chemical depilatory (Surgex). To one organ of each animal 10-25 μl. of vehicle alone once a day is applied, while to the other organ of each animal an equal amount of vehicle containing an OAT inhibitor is applied. After thirteen applications (one application per day for five days a week), the flank organs are shaved and the amount of recovered hair (hair mass) from each is weighed. Percent-reduction of hair growth is calculated by subtracting the hair mass (mg) value of the test compound treated side from the hair mass value of the vehicle treated side; the delta value obtained is then divided by the hair mass value of the vehicle treated side, and the resultant number is multiplied by 100.
The above-described assay will be referred to herein as the "Golden Syrian hamster" assay. Preferred compositions provide an reduction in hair growth of at least about 35%, more preferably at least about 50%, and most preferably at least about 70% when tested in the Golden Syrian hamster assay.
The vehicle used in the compositions tested was 68% deionized water, 16% absolute ethanol, 5% propylene glycol, 5% dipropylene glycol, 4% benzoyl alcohol, and 2% propylene carbonate.

[2] = 10 μM, one hour incubation, flank organ follicle supernatant
[3] = 100 μM, one hour incubation, flank organ follicle supernatant, read-out: Percent Inhibition (OAT)

Question: How did the “nm P5C formed/fol/1 hr” value ([1]; 1 μM, one hour incubation) turn out when `NC(CF)CCC(N)C(=O)O` (stereo not shown) [5-FMOrn, 6-fluoro-2,5-diaminohexanoic acid] was run?
Answer: The value was 31.419 nm P5C formed/fol/1 hr.

Question: What about the “Percent Inhibition (OAT)” value ([1]; 1 μM, one hour incubation, flank organ follicle supernatant) of the same compound?
Answer: Its value is “No OAT inhibition and none”.

Question: What about the “nm P5C formed/fol/1 hr” value ([1]; 10 μM, one hour incubation) of the same compound?
Answer: Its value is 29.327 nm P5C formed/fol/1 hr.

Question: What about the “Percent Inhibition (OAT)” value [1, 2] of the same compound?
Answer: The value was “No OAT inhibition and none”.

Question: And the “nm P5C formed/fol/1 hr” value ([1]; 100 μM, one hour incubation)?
Answer: The value was 19.562 nm P5C formed/fol/1 hr.

Question: What about the “nm P5C formed/fol/1 hr” value ([1]; 1 mM, pH = 7.5, one hour incubation) of the same compound?
Answer: Its value is 3.334 nm P5C formed/fol/1 hr.

Question: What about the “Percent Inhibition (OAT)” value ([1]; 1 mM, pH = 7.5, one hour incubation, flank organ follicle supernatant) of the same compound?
Answer: Its value is 83.036%.

Question: What about the inhibition at 100 µM ([1]; read-out: Percent Inhibition (OAT), 100 μM, one hour incubation, flank organ follicle supernatant) of the same compound?
Answer: The inhibition at 100 µM was 0.471%.

Question: And the inhibition at 1000 µM ([1]; read-out: Percent Inhibition (OAT), 1 mM, pH = 7.5, one hour incubation, flank organ follicle supernatant)?
Answer: The inhibition at 1000 µM was 83%.

Question: And the “% Reduction (of hair growth, mean ± SEM)” value (flank organs hair growth; 5% in vehicle)?
Answer: Its value is 66.02 ± 6.30%.

Question: And the “Treated (hair mass, mean ± SEM)” value (flank organs hair growth; 5% in vehicle)?
Answer: The value was “.616 ± .15 mg”.

Question: What about the “% Reduction (of hair growth, mean ± SEM)” value (flank organs hair growth; 15% in vehicle) of the same compound?
Answer: Its value is 84.55 ± 2.47%.

Question: And the “Treated (hair mass, mean ± SEM)” value (flank organs hair growth; 15% in vehicle)?
Answer: Its value is “.322 ± .07 mg”.

Question: With `NOCC[C@H](N)C(=O)O` [Canaline, (S)-2-amino-4-amino-oxybutyric acid] as the compound, how does the “nm P5C formed/fol/1 hr” value ([1]; 1 μM, one hour incubation) read?
Answer: The value was 29.859 nm P5C formed/fol/1 hr.

Question: What about the “Percent Inhibition (OAT)” value ([1]; 1 μM, one hour incubation, flank organ follicle supernatant, listed as L-Canaline) of the same compound?
Answer: Its value is “no inhibition and none”.

Question: And the “nm P5C formed/fol/1 hr” value ([1]; 10 μM, one hour incubation)?
Answer: Its value is 24.096 nm P5C formed/fol/1 hr.

Question: And the “Percent Inhibition (OAT)” value ([1]; 10 μM, one hour incubation, flank organ follicle supernatant, listed as L-Canaline)?
Answer: Its value is “no inhibition and none”.

Question: What about the “nm P5C formed/fol/1 hr” value ([1]; 100 μM, one hour incubation) of the same compound?
Answer: Its value is 14.612 nm P5C formed/fol/1 hr.

Question: What about the “Percent Inhibition (OAT)” value ([1]; 100 μM, one hour incubation, flank organ follicle supernatant, listed as L-Canaline) of the same compound?
Answer: Its value is 25.653%.

Question: What about the inhibition at 100 µM [1, 3] of the same compound?
Answer: Its inhibition at 100 µM is 25%.

Question: And the inhibition at 1000 µM ([1]; 1 mM, pH = 7.5, one hour incubation, flank organ follicle supernatant, read-out: Percent Inhibition (OAT))?
Answer: The inhibition at 1000 µM was 100%.

Question: And the “% Reduction (of hair growth, mean ± SEM)” value (flank organs hair growth; 2% in vehicle)?
Answer: The value was 20.99 ± 7.70%.

Question: And the “Treated (hair mass, mean ± SEM)” value (flank organs hair growth; 2% in vehicle)?
Answer: Its value is 1.553 ± .20 mg.

Question: And the “% Reduction (of hair growth, mean ± SEM)” value (flank organs hair growth; 10% in vehicle)?
Answer: Its value is 44.50 ± 7.40%.

Question: What about the “Treated (hair mass, mean ± SEM)” value (flank organs hair growth; 10% in vehicle) of the same compound?
Answer: The value was “.790 ± .11 mg”.

Question: What does the source list for `NC1C=CC=C(C(=O)O)C1` (stereo not shown) [Gabaculin, 3-amino-2,3-dihydrobenzoic acid]?
Answer: nm P5C formed/fol/1 hr ([1]; 1 μM, one hour incubation): 19.637 nm P5C formed/fol/1 hr; inhibition at 1 µM ([1]; 1 μM, one hour incubation, flank organ follicle supernatant, read-out: Percent Inhibition (OAT)): 0.089%; nm P5C formed/fol/1 hr ([1]; 10 μM, one hour incubation): 5.057 nm P5C formed/fol/1 hr; Percent Inhibition (OAT) [1, 2]: 74.268%; inhibition at 10 µM ([1]; 10 μM, one hour incubation, flank organ follicle supernatant, read-out: Percent Inhibition (OAT)): 75%; inhibition at 100 µM [1, 3]: 100%; inhibition at 1000 µM ([1]; 1 mM, one hour incubation, flank organ follicle supernatant, read-out: Percent Inhibition (OAT)): 100%; relative potency as OAT inhibitor ([1]; comparison of Gabaculin, L-Canaline and 5-FMOrn): most potent inhibitor; % Reduction (of hair growth, mean ± SEM) (flank organs hair growth; 10% in vehicle): 43.06 ± 2.72%; Treated (hair mass, mean ± SEM) (flank organs hair growth; 10% in vehicle): 1.365 ± .14 mg; % Reduction (of hair growth, mean ± SEM) (flank organs hair growth; 25% in vehicle): 48.08 ± 5.00%; Treated (hair mass, mean ± SEM) (flank organs hair growth; 25% in vehicle): 1.266 ± .11 mg
